Source: ChEMBL document CHEMBL1250443, “Microarray-based method for monitoring yeast overexpression strains reveals small-molecule targets in TOR pathway” (Nat Chem Biol, 2006)

What was measured:
[1] = Inhibition of TOR signaling in wild-type Saccharomyces cerevisiae transformed with overexpression plasmids assessed as increased PDR3 gene expression by microarray
[2] = Inhibition of TOR signaling in wild-type Saccharomyces cerevisiae transformed with overexpression plasmids assessed as decreased ERO1 gene expression by microarray
[3] = Inhibition of TOR signaling in wild-type Saccharomyces cerevisiae transformed with overexpression plasmids assessed as increased TIF2 gene expression by microarray
[4] = Inhibition of TOR signaling in wild-type Saccharomyces cerevisiae transformed with overexpression plasmids assessed as increased URA5 gene expression by microarray
[5] = Inhibition of TOR signaling in wild-type Saccharomyces cerevisiae transformed with overexpression plasmids assessed as decreased CDC42 gene expression by microarray
[6] = Inhibition of TOR signaling in wild-type Saccharomyces cerevisiae transformed with overexpression plasmids assessed as decreased AZR1 gene expression by microarray
[7] = Inhibition of TOR signaling in wild-type Saccharomyces cerevisiae transformed with overexpression plasmids assessed as decreased TPO4 gene expression by microarray
[8] = Inhibition of TOR signaling in wild-type Saccharomyces cerevisiae transformed with overexpression plasmids assessed as decreased YKL174C gene expression by microarray
[9] = Inhibition of TOR signaling in wild-type Saccharomyces cerevisiae transformed with overexpression plasmids assessed as decreased PUT4 gene expression by microarray
[10] = Inhibition of TOR signaling in wild-type Saccharomyces cerevisiae transformed with overexpression plasmids assessed as decreased APL4 gene expression by microarray
[11] = Inhibition of TOR signaling in wild-type Saccharomyces cerevisiae transformed with overexpression plasmids assessed as decreased GIP3 gene expression by microarray
[12] = Inhibition of TOR signaling in wild-type Saccharomyces cerevisiae transformed with overexpression plasmids assessed as decreased GIS4 gene expression by microarray
[13] = Inhibition of TOR signaling in wild-type Saccharomyces cerevisiae transformed with overexpression plasmids assessed as increased YLR346C gene expression by microarray
[14] = Inhibition of TOR signaling in wild-type Saccharomyces cerevisiae transformed with overexpression plasmids assessed as decreased YBR284W gene expression by microarray
[15] = Inhibition of TOR signaling in wild-type Saccharomyces cerevisiae transformed with overexpression plasmids assessed as increased YCL049C gene expression by microarray
[16] = Inhibition of TOR signaling in wild-type Saccharomyces cerevisiae transformed with overexpression plasmids assessed as increased YDL025C gene expression by microarray
[17] = Inhibition of TOR signaling in wild-type Saccharomyces cerevisiae transformed with overexpression plasmids assessed as increased YDL063C gene expression by microarray
[18] = Inhibition of TOR signaling in wild-type Saccharomyces cerevisiae transformed with overexpression plasmids assessed as decreased YNL058C gene expression by microarray
Saccharomyces cerevisiae = assay: Increase of HMI1 gene expression in wild-type Saccharomyces cerevisiae transformed with overexpression plasmids by microarray; type: functional
[19] = Inhibition of TOR signaling in wild-type Saccharomyces cerevisiae transformed with overexpression plasmids assessed as decreased ATX2 gene expression by microarray

- fold change (FC) [1]: 14.4
- fold change (FC) [2]: -2.3
- fold change (FC) [3]: 2.6
- fold change (FC) [4]: 2.2
- fold change (FC) [5]: -2
- fold change (FC) [6]: -3.1
- fold change (FC) [7]: -5.8
- fold change (FC) [8]: -5.6
- fold change (FC) [9]: -3.1
- fold change (FC) [10]: -2.7
- fold change (FC) [11]: -2.3
- fold change (FC) [12]: -7.2
- fold change (FC) [13]: 2.7
- fold change (FC) [14]: -3.2
- fold change (FC) [15]: 2.1
- fold change (FC) [16]: 2.5
- fold change (FC) [17]: 2.5
- fold change (FC) [18]: -2.1
- fold change (FC) [19]: -2
SMILES: CO[C@H]1C[C@@H]2CC[C@@H](C)[C@@](O)(O2)C(=O)C(=O)N2CCCC[C@H]2C(=O)O[C@H]([C@H](C)C[C@@H]2CC[C@@H](O)[C@H](OC)C2)CC(=O)[C@H](C)/C=C(\C)[C@@H](O)[C@@H](OC)C(=O)[C@H](C)C[C@H](C)/C=C/C=C/C=C/1C [SIROLIMUS]
- fold change (FC) (Saccharomyces cerevisiae): -2.3
